Assay results reported in the NIST ThermoML archive (doi:10.1021/acs.jced.7b01125).

Assay: xn = mol fraction of the nth substance listed
Settings: Gas, Buoyancy - hydrostatic balance with magnetic suspension - one sinker

[HH] [hydrogen] + C
Settings	mass density [kg/m3]
240.08 K, 8004 kPa, x2 = 0.9499	84.026
240.08 K, 8008 kPa, x2 = 0.9	76.371
240.08 K, 9003 kPa, x2 = 0.9499	98.317
240.08 K, 9004 kPa, x2 = 0.9	88.565
240.08 K, 10004 kPa, x2 = 0.9	101.131
240.08 K, 10007 kPa, x2 = 0.9499	113.159
240.08 K, 11012 kPa, x2 = 0.9	113.893
240.08 K, 12006 kPa, x2 = 0.9	126.282
240.08 K, 13016 kPa, x2 = 0.9	138.41
240.08 K, 14006 kPa, x2 = 0.9	149.671
240.08 K, 15020 kPa, x2 = 0.9	160.417
240.08 K, 16024 kPa, x2 = 0.9	170.25
250.03 K, 1001 kPa, x2 = 0.4997	4.372
250.03 K, 2000 kPa, x2 = 0.4997	8.784
250.03 K, 2990 kPa, x2 = 0.4997	13.19
250.03 K, 4000 kPa, x2 = 0.4997	17.721
250.03 K, 5000 kPa, x2 = 0.4997	22.235
250.03 K, 7001 kPa, x2 = 0.4997	31.315
250.03 K, 8002 kPa, x2 = 0.4997	35.861
250.04 K, 999 kPa, x2 = 0.9499	7.587
250.04 K, 1999 kPa, x2 = 0.9499	15.652
250.04 K, 3000 kPa, x2 = 0.9	22.884
250.04 K, 3002 kPa, x2 = 0.9499	24.252
250.04 K, 4000 kPa, x2 = 0.9	31.364
250.04 K, 4006 kPa, x2 = 0.9499	33.422
250.04 K, 5002 kPa, x2 = 0.9	40.328
250.04 K, 5005 kPa, x2 = 0.9499	43.167
250.04 K, 5999 kPa, x2 = 0.4997	26.765
250.04 K, 6001 kPa, x2 = 0.9499	53.515
250.04 K, 6004 kPa, x2 = 0.9	49.775
250.04 K, 7002 kPa, x2 = 0.9	59.655
250.04 K, 7002 kPa, x2 = 0.9499	64.575
250.04 K, 8004 kPa, x2 = 0.9	70.009
250.04 K, 9002 kPa, x2 = 0.4997	40.398
250.04 K, 9006 kPa, x2 = 0.9499	88.515
250.04 K, 9011 kPa, x2 = 0.9	80.795
250.04 K, 10001 kPa, x2 = 0.4997	44.91
250.04 K, 10014 kPa, x2 = 0.9	91.789
250.04 K, 11004 kPa, x2 = 0.4997	49.405
250.04 K, 11010 kPa, x2 = 0.9	102.827
250.04 K, 12004 kPa, x2 = 0.4997	53.836
250.04 K, 13005 kPa, x2 = 0.4997	58.27
250.04 K, 14003 kPa, x2 = 0.4997	62.615
250.04 K, 15009 kPa, x2 = 0.4997	66.921
250.04 K, 16007 kPa, x2 = 0.4997	71.14
250.04 K, 17008 kPa, x2 = 0.4997	75.293
250.04 K, 18013 kPa, x2 = 0.4997	79.385
250.04 K, 19258 kPa, x2 = 0.4997	84.34
250.05 K, 1000 kPa, x2 = 0.9	7.23
